From US12077503B2, “Substituted cyclic amides and their use as herbicides” (FMC CORPORATION, priority 2015, dated 2024)

How the values were obtained:
Type in all cases: in vivo
Kochia (Kochia scoparia) [1] = test: Test A preemergence; settings: Preemergence; for Plant response rating, Kochia: 125 g ai/ha, visual injury after approximately 10 d, 0 to 100 scale where 0 is no effect and 100 is complete control; for Kochia plant response rating (0 to 100 scale, 0 is no effect, 100 is complete control): 500 g ai/ha, visual injury approx. 10 d
Procedure, shortened: (§1)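 Seeded soil received test chemicals as a preemergence directed spray, and seedlings at one to two leaves, 2–10 cm tall, received them postemergence, in a non-phytotoxic, surfactant-containing solvent mixture. Pots were held in a greenhouse for approximately 10 d, then rated for injury from 0, no effect, to 100, complete control.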

[2] = test system: barnyardgrass (Echinochloa crus-galli); test: Test A preemergence; settings: Preemergence; for Plant response rating, Barnyardgrass: 125 g ai/ha, visual injury after approximately 10 d, 0 to 100 scale where 0 is no effect and 100 is complete control; for Barnyardgrass plant response rating (0 to 100 scale, 0 is no effect, 100 is complete control): 500 g ai/ha, visual injury approx. 10 d
Procedure, shortened: as §1

[3] = test system: giant foxtail (Setaria faberii); test: Test A preemergence; settings: Preemergence; for Plant response rating, Foxtail, Giant: 125 g ai/ha, visual injury after approximately 10 d, 0 to 100 scale where 0 is no effect and 100 is complete control; for Foxtail, Giant plant response rating (0 to 100 scale, 0 is no effect, 100 is complete control): 500 g ai/ha, visual injury approx. 10 d
Procedure, shortened: as §1

[4] = test system: pigweed (Amaranthus retroflexus); test: Test A preemergence; settings: Preemergence; for Plant response rating, Pigweed: 125 g ai/ha, visual injury after approximately 10 d, 0 to 100 scale where 0 is no effect and 100 is complete control; for Pigweed plant response rating (0 to 100 scale, 0 is no effect, 100 is complete control): 500 g ai/ha, visual injury approx. 10 d
[5] = test system: ragweed (common ragweed, Ambrosia elatior); test: Test A preemergence; settings: Preemergence; for Plant response rating, Ragweed: 125 g ai/ha, visual injury after approximately 10 d, 0 to 100 scale where 0 is no effect and 100 is complete control; for Ragweed plant response rating (0 to 100 scale, 0 is no effect, 100 is complete control): 500 g ai/ha, visual injury approx. 10 d
Procedure, shortened: as §1

[6] = test system: ryegrass, Italian (Italian ryegrass, Lolium multiflorum); test: Test A preemergence; settings: Preemergence; for Plant response rating, Ryegrass, Italian: 125 g ai/ha, visual injury after approximately 10 d, 0 to 100 scale where 0 is no effect and 100 is complete control; for Ryegrass, Italian plant response rating (0 to 100 scale, 0 is no effect, 100 is complete control): 500 g ai/ha, visual injury approx. 10 d
Procedure, shortened: as §1

[7] = test system: Galium (catchweed bedstraw, Galium aparine); test: Test A postemergence; settings: for Galium plant response rating: 125 g ai/ha, postemergence, visual injury rating on 0 to 100 scale (0 no effect, 100 complete control), approx. 10 d; for Plant response rating, Galium: Postemergence, 500 g ai/ha, 0 to 100 scale where 0 is no effect and 100 is complete control
Procedure, shortened: as §1

Kochia (Kochia scoparia) [8] = test: Test A postemergence; settings: for Kochia plant response rating: 125 g ai/ha, postemergence, visual injury rating on 0 to 100 scale (0 no effect, 100 complete control), approx. 10 d; for Plant response rating, Kochia: Postemergence, 500 g ai/ha, 0 to 100 scale where 0 is no effect and 100 is complete control
Procedure, shortened: as §1

[9] = test system: barnyardgrass (Echinochloa crus-galli); test: Test A postemergence; settings: for Barnyardgrass plant response rating: 125 g ai/ha, postemergence, visual injury rating on 0 to 100 scale (0 no effect, 100 complete control), approx. 10 d; for Plant response rating, Barnyardgrass: Postemergence, 500 g ai/ha, 0 to 100 scale where 0 is no effect and 100 is complete control
Procedure, shortened: as §1

[10] = test system: blackgrass (Alopecurus myosuroides); test: Test A postemergence; settings: for Blackgrass plant response rating: 125 g ai/ha, postemergence, visual injury rating on 0 to 100 scale (0 no effect, 100 complete control), approx. 10 d; for Plant response rating, Blackgrass: Postemergence, 500 g ai/ha, 0 to 100 scale where 0 is no effect and 100 is complete control
Procedure, shortened: as §1

corn (Zea mays) = test: Test A postemergence; settings: for Corn plant response rating: 125 g ai/ha, postemergence, visual injury rating on 0 to 100 scale (0 no effect, 100 complete control), approx. 10 d; for Plant response rating, Corn: Postemergence, 500 g ai/ha, 0 to 100 scale where 0 is no effect and 100 is complete control
Procedure, shortened: as §1

[11] = test system: giant foxtail (Setaria faberii); test: Test A postemergence; settings: for Foxtail, Giant plant response rating: 125 g ai/ha, postemergence, visual injury rating on 0 to 100 scale (0 no effect, 100 complete control), approx. 10 d; for Plant response rating, Foxtail, Giant: Postemergence, 500 g ai/ha, 0 to 100 scale where 0 is no effect and 100 is complete control
Procedure, shortened: as §1

[12] = test system: pigweed (Amaranthus retroflexus); test: Test A postemergence; settings: for Pigweed plant response rating: 125 g ai/ha, postemergence, visual injury rating on 0 to 100 scale (0 no effect, 100 complete control), approx. 10 d; for Plant response rating, Pigweed: Postemergence, 500 g ai/ha, 0 to 100 scale where 0 is no effect and 100 is complete control
Procedure, shortened: as §1

[13] = test system: ragweed (common ragweed, Ambrosia elatior); test: Test A postemergence; settings: for Ragweed plant response rating: 125 g ai/ha, postemergence, visual injury rating on 0 to 100 scale (0 no effect, 100 complete control), approx. 10 d; for Plant response rating, Ragweed: Postemergence, 500 g ai/ha, 0 to 100 scale where 0 is no effect and 100 is complete control
Procedure, shortened: as §1

[14] = test system: ryegrass, Italian (Italian ryegrass, Lolium multiflorum); test: Test A postemergence; settings: for Ryegrass, Italian plant response rating: 125 g ai/ha, postemergence, visual injury rating on 0 to 100 scale (0 no effect, 100 complete control), approx. 10 d; for Plant response rating, Ryegrass, Italian: Postemergence, 500 g ai/ha, 0 to 100 scale where 0 is no effect and 100 is complete control
Procedure, shortened: as §1

[15] = test system: wheat (Triticum aestivum); test: Test A postemergence; settings: for Wheat plant response rating: 125 g ai/ha, postemergence, visual injury rating on 0 to 100 scale (0 no effect, 100 complete control), approx. 10 d; for Plant response rating, Wheat: Postemergence, 500 g ai/ha, 0 to 100 scale where 0 is no effect and 100 is complete control
Procedure, shortened: as §1

[16] = test system: barnyardgrass (Echinochloa crus-galli); test: Test B flooded paddy test; settings: Flood, 250 g ai/ha; 0 to 100 scale where 0 is no effect and 100 is complete control; 13 to 15 d
Procedure, shortened: (§2)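 Plants at 2-leaf stage flooded to 3 cm above soil, with compounds applied directly to paddy water and that depth maintained. Plants kept in greenhouse 13–15 d. Visual rating versus controls on a 0 (no effect) to 100 (complete control) scale.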

[17] = test system: ducksalad (Heteranthera limosa); test: Test B flooded paddy test; settings: Flood, 250 g ai/ha; 0 to 100 scale where 0 is no effect and 100 is complete control; 13 to 15 d
Procedure, shortened: as §2

rice (Oryra sativa) = test: Test B flooded paddy test; settings: Flood, 250 g ai/ha; 0 to 100 scale where 0 is no effect and 100 is complete control; 13 to 15 d
Procedure, shortened: as §2

[18] = test system: sedge, umbrella (small-flower umbrella sedge, Cyperus difformis); test: Test B flooded paddy test; settings: Flood, 250 g ai/ha; 0 to 100 scale where 0 is no effect and 100 is complete control; 13 to 15 d
Procedure, shortened: as §2

| Compound | Plant response rating, Kochia (Kochia (Kochia scoparia) [1]) | Kochia plant response rating (0 to 100 scale, 0 is no effect, 100 is complete control) (Kochia (Kochia scoparia) [1]) | Plant response rating, Barnyardgrass [2] | Barnyardgrass plant response rating (0 to 100 scale, 0 is no effect, 100 is complete control) [2] | Plant response rating, Foxtail, Giant [3] | Foxtail, Giant plant response rating (0 to 100 scale, 0 is no effect, 100 is complete control) [3] | Plant response rating, Pigweed [4] | Pigweed plant response rating (0 to 100 scale, 0 is no effect, 100 is complete control) [4] | Plant response rating, Ragweed [5] | Ragweed plant response rating (0 to 100 scale, 0 is no effect, 100 is complete control) [5] | Plant response rating, Ryegrass, Italian [6] | Ryegrass, Italian plant response rating (0 to 100 scale, 0 is no effect, 100 is complete control) [6] | Galium plant response rating [7] | Plant response rating, Galium [7] | Kochia plant response rating (Kochia (Kochia scoparia) [8]) | Plant response rating, Kochia (Kochia (Kochia scoparia) [8]) | Barnyardgrass plant response rating [9] | Plant response rating, Barnyardgrass [9] | Blackgrass plant response rating [10] | Plant response rating, Blackgrass [10] | further results |
| --- | --- | --- | --- | --- | --- | --- | --- | --- | --- | --- | --- | --- | --- | --- | --- | --- | --- | --- | --- | --- | --- |
| O=C(Nc1cccc(F)c1F)C1C(=O)N(CC=CBr)CC1c1cccc(C(F)(F)F)c1 (stereo not drawn) [Compound 486] | 0 | 0 | 30 | 70 | 60 | 90 | 0 | 20 | 0 | 0 | 0 | 20 | 0 | 20 | 0 | 0 | 0 | 40 | 0 | 0 | Corn plant response rating (corn (Zea mays)): 0; Plant response rating, Corn (corn (Zea mays)): 0; Foxtail, Giant plant response rating [11]: 0; Plant response rating, Foxtail, Giant [11]: 50; Pigweed plant response rating [12]: 0; Plant response rating, Pigweed [12]: 40; Ragweed plant response rating [13]: 0; Plant response rating, Ragweed [13]: 0; Ryegrass, Italian plant response rating [14]: 0; Plant response rating, Ryegrass, Italian [14]: 0; Wheat plant response rating [15]: 0; Plant response rating, Wheat [15]: 0; Plant response rating, Barnyardgrass [16]: 0; Plant response rating, Ducksalad [17]: 0; Plant response rating, Rice (rice (Oryra sativa)): 0; Plant response rating, Sedge, Umbrella [18]: 0 |
| O=C1NCC(c2cccc(F)c2F)C1C(=O)Nc1ccccc1F (stereo not drawn) [Compound 494] | 0 | 0 | 70 | 90 | 80 | 90 | 0 | 0 | 0 | 0 | 0 | 0 | 0 | 0 | 0 | 0 | 30 | 80 | 0 | 0 | Corn plant response rating (corn (Zea mays)): 0; Plant response rating, Corn (corn (Zea mays)): 0; Foxtail, Giant plant response rating [11]: 20; Plant response rating, Foxtail, Giant [11]: 60; Pigweed plant response rating [12]: 0; Plant response rating, Pigweed [12]: 0; Ragweed plant response rating [13]: 0; Plant response rating, Ragweed [13]: 0; Ryegrass, Italian plant response rating [14]: 0; Plant response rating, Ryegrass, Italian [14]: 0; Wheat plant response rating [15]: 0; Plant response rating, Wheat [15]: 0; Plant response rating, Barnyardgrass [16]: 20; Plant response rating, Ducksalad [17]: 30; Plant response rating, Rice (rice (Oryra sativa)): 0; Plant response rating, Sedge, Umbrella [18]: 0 |
| COCc1cccc(C2CNC(=O)C2C(=O)Nc2ccc(F)cc2F)c1 (stereo not drawn) [Compound 499] | 0 | 30 | 30 | 90 | 30 | 90 | 0 | 0 | 0 | 0 | 0 | 0 | 0 | 40 | 0 | 0 | 30 | 80 | 0 | 0 | Corn plant response rating (corn (Zea mays)): 0; Plant response rating, Corn (corn (Zea mays)): 0; Foxtail, Giant plant response rating [11]: 20; Plant response rating, Foxtail, Giant [11]: 30; Pigweed plant response rating [12]: 0; Plant response rating, Pigweed [12]: 0; Ragweed plant response rating [13]: 0; Plant response rating, Ragweed [13]: 0; Ryegrass, Italian plant response rating [14]: 0; Plant response rating, Ryegrass, Italian [14]: 0; Wheat plant response rating [15]: 0; Plant response rating, Wheat [15]: 0; Plant response rating, Barnyardgrass [16]: 50; Plant response rating, Ducksalad [17]: 80; Plant response rating, Rice (rice (Oryra sativa)): 15; Plant response rating, Sedge, Umbrella [18]: 0 |
| CC(=O)N1CC(c2cccc(C(F)(F)F)c2)C(C(=O)Nc2ccccc2F)C1=O (stereo not drawn) [Compound 503] | 0 | 20 | 90 | 90 | 90 | 90 | 0 | 40 | 0 | 0 | 0 | 50 | 30 | 70 | 0 | 0 | 90 | 90 | 30 | 70 | Corn plant response rating (corn (Zea mays)): 20; Plant response rating, Corn (corn (Zea mays)): 80; Foxtail, Giant plant response rating [11]: 90; Plant response rating, Foxtail, Giant [11]: 90; Pigweed plant response rating [12]: 0; Plant response rating, Pigweed [12]: 0; Ragweed plant response rating [13]: 30; Plant response rating, Ragweed [13]: 30; Ryegrass, Italian plant response rating [14]: 40; Plant response rating, Ryegrass, Italian [14]: 70; Wheat plant response rating [15]: 0; Plant response rating, Wheat [15]: 40; Plant response rating, Barnyardgrass [16]: 45; Plant response rating, Ducksalad [17]: 85; Plant response rating, Rice (rice (Oryra sativa)): 0; Plant response rating, Sedge, Umbrella [18]: 0 |
